Data reported in patent US20100160440A1, “INTRANASAL PHARMACEUTICAL COMPOSITIONS COMPRISING SUCCINIC ACID AND METHODS THEREOF” (priority 2007, published 2010).
Like-named read-outs stand apart in the source and are kept apart here.

Tested on: male Wistar rats injected with beta-amyloid peptide 25-35 into NBM
Settings: for Improvement in learning and memory as compared to control rats: 1 mg/kg for 7 days; for Latency (retention latency to enter dark compartment, mean±SD): 1 mg/kg succinic acid water solution once a day for 7 days from day 16 after beta-amyloid, retention trial 24 h after acquisition, cut-off 180 s, n=8
Method: Beta-amyloid was administered bilaterally into NBM of male Wistar rats in dose of 2 μg per each side. On day 16th after the amyloid injection, rats received intranasally or intraperitoneally compositions comprising a water solution of 1 mg/kg of succinic acid for 7 days singly a day. Control rats received saline intranasally. On day next to the last day of the treatment, passive avoidance performance in rats was tested for two consecutive days. A two-compartment, step-through, passive avoidance apparatus consisting of illuminated (25×40×25 cm) and dark (25×40×25 cm) compartments attached to an electrified grid floor and separated by a guillotine door (8×8 cm) was used. In the acquisition trial, the rat was placed in the illuminated compartment in a position its tail directed to the closed door for 2 min to habituate to the apparatus. The guillotine door was opened and time to enter to dark compartment was recorded. When the rat entered to dark compartment completely (four foots in dark compartment), the guillotine door was closed and the rat was delivered an electrical shock of 0.8 mA for 3 sec through the grid floor. After the shock, the rat was immediately placed in home cage. In the retention trial, conducted 24 h after the acquisition trial, the rat was placed in the illuminated compartment and the retention latency to enter into the dark compartment was recorded until 180 s had elapsed. […] Data are presented as retention latency mean±SD (n=8).

O=C(O)CCC(=O)O [Succinic acid]
Improvement in learning and memory as compared to control rats (intranasally treated rats): significant improvement in learning and memory
Latency (retention latency to enter dark compartment, mean±SD) (intranasally): 87 ± 21 s
Improvement in learning and memory as compared to control rats (intraperitoneally treated rats): do not
Latency (retention latency to enter dark compartment, mean±SD) (intraperitoneally): 43 ± 19 s
